Experimental data: US6433001B1, “1H-indole-3-glyoxylamide sPLA2 inhibitors” (Eli Lilly and Company, priority 1994, dated 2002)
Where a name gives a salt, the structure may show the parent alone. Read-outs that look alike come from different tables or passages of the source.

How the values were obtained:
[1] = molecular target: T1, Human Secreted Phospholipase A2 (Homo sapiens, UniProt P14555); assay: chromogenic assay for inhibitors of recombinant human secreted phospholipase A2; format: biochemical
T1 sequence (P14555 21-144): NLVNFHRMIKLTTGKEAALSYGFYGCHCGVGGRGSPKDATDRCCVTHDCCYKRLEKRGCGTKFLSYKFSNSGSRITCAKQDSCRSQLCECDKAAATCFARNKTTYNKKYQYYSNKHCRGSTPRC
Description: The following chromogenic assay procedure was used to identify and evaluate inhibitors of recombinant human secreted phospholipase A2. The assay described herein has been adapted for high volume screening using 96 well microtiter plates.
Adjust pH to 4.5 with acetic acid
DTNB—5,5′-dithiobis-2-nitrobenzoic acid
RACEMIC DIHEPTANOYL THIO—PC
racemic 1,2-bis(heptanoylthio)-1,2-dideoxy-sn-glycero-3-phosphorylcholine
TRITON X-100™ prepare at 6.249 mg/ml in reaction buffer to equal […].
A measured volume of racemic dipheptanoyl thio PC supplied in chloroform at a concentration of 100 mg/ml is taken to dryness and redissolved in 10 millimolar TRITON X-100™ nonionic detergent aqueous solution.
Reaction Buffer is added to the solution, then DTNB to give the Reaction Mixture.
The reaction mixture thus obtained contains 1 mM diheptanoly thio-PC substrate, 0.29 mm Triton X-100™ detergent, and 0.12 mm DTMB in a buffered aqueous solution at pH 7.5.
1. Add 0.2 ml reaction mixture to all wells;
2. Add 10 ul test compound (or solvent blank) to appropriate wells, mix 20 seconds;
3. Add 50 nanograms of sPLA2 (10 microliters) to appropriate wells;
4. Incubate plate at 40° C. for 30 minutes;
5. Read absorbance of wells at 405 nanometers with an automatic plate reader.
All compounds were tested in triplicate. […] Lack of color development at 405 nanometers evidenced inhibition. […] In all cases, % inhibition measured at 405 nanometers generated by enzyme reactions containing inhibitors relative to the uninhibited control reactions was determined. Each sample was titrated in triplicate and result values were averaged for plotting and calculation of IC50 values.

[2] = molecular target: T1, Human Secreted Phospholipase A2; assay: guinea pig lung pleural strip tissue test, sPLA2-induced contraction; format: cell-based; conditions: guinea pig lung pleural strips; compound added 30 min. prior to sPLA2 concentration-response curves; pA2 interpreted as apparent KB; read-out: Tissue test secreted PLA2 Apparent KB
From the text: Male Hartley strain guinea pigs (500-700 g) were killed by cervical dislocation and their heart and lungs removed intact and placed in aerated (95% O2:5% CO2) Krebs buffer. Dorsal pleural strips (4×1×25 mm) were dissected from intact parenchymal segments (8×4×25 mm) cut parallel to the outer edge of the lower lung lobes. Two adjacent pleural strips, obtained from a single lobe and representing a single tissue sample, were tied at either end and independently attached to a metal support rod. One rod was attached to a Grass force-displacement transducer (Model FTO3C, product of Grass Medical Instruments Co., Quincy, Mass., USA). […] All tissues were placed in 10 ml jacketed tissue baths maintained at 37° C. The tissue baths were continuously aerated and contained a modified Krebs solution of the following composition (millimolar) NaCl, 118.2; KCl, 4.6; CaCl2.2H2O, 2.5; MgSO4.7H2O, 1.2; NaHCO3, 24.8; KH2PO4, 1.0; and dextrose 10.0. Pleural strips from the opposite lobes of the lung were used for paired experiments. […] The tissues were allowed to equilibrate for 45 min. as the bath fluid was changed periodically.
Initially tissues were challenged 3 times with KCl (40 mM) to test tissue viability and to obtain a consistent response. After recording the maximal response to KCl, the tissues were washed and allowed to return to baseline before the next challenge. Cumulative concentration-response curves were obtained from pleural strips by increasing the agonist concentration (sPLA2) in the tissue bath by half-log10 increments while the previous concentration remained in contact with the tissues (Ref.1, supra.) Agonist concentration was increased after reaching the plateau of the contraction elicited by the preceding concentration. One concentration-response curve was obtained from each tissue. To minimize variability between tissues obtained from different animals, contractile responses were expressed as a percentage of the maximal response obtained with the final KCl challenge. When studying the effects of various drugs on the contractile effects of sPLA2, the compounds and their respective vehicles were added to the tissues 30 min. prior to star ting the sPLA2 concentration-response curves.
Data from different experiments were pooled and presented as a percentage of the maximal KCl responses (mean±S.E.). […] 163, (Ref.2) The model includes four parameters: the maximum tissue response which was assumed the same for each curve, the ED50 for the control curve, the steepness of the curves, and the pA2, the concentration of antagonist that requires a two-fold increase in agonist to achieve an equivalent response. […] 164 (Ref. 2).
To estimate the drug-induced suppression of the maximal responses, siPLA2 responses (10 ug/ml) were determined in the absence and presence of drug, and percent suppression was calculated for each pair of tissues.

[3] = diheptanoyl thio-PC substrate, pH 7.5, 40° C. for 30 minutes, absorbance at 405 nanometers, read-out: Inhibition of human secreted PLA2 IC50 ± mean deviation (3-4 tests)

In the case of `Cc1c(C(=O)C(N)=O)c2c(OC(C)C(=O)O)cccc2n1Cc1ccccc1` (racemic) [Example 2, dl-2-[[3-(2-Amino-1,2-dioxoethyl)-2-methyl-1-(phenylmethyl)-1H-indol-4-yl]oxy]propanoic Acid], the IC50 [1, 3] is reported as 9 ± 1.73 nM.

`Cc1c(C(=O)C(N)=O)c2c(OCC(=O)O)cccc2n1Cc1ccccc1-c1ccccc1` [3 (Na salt), [[3-(2-amino-1,2-dioxoethyl)-1-([1,1′-biphenyl]-2-ylmethyl)-2-methyl-1H-indol-4-yl]oxy]acetic acid, sodium salt] gave a Kb [2] of 67.6 ± 11.8 nM.

Work on `CCc1c(C(=O)C(N)=O)c2c(OCC(=O)O)cccc2n1Cc1cccc(Cl)c1` [10 (Na salt), [[3-(2-amino-1,2-dioxoethyl)1-[(3-chlorophenyl)methyl]-2-ethyl-1H-indol-4-yl]oxy]acetic acid, sodium salt] yielded a Kb [2] of 110 ± 10 nM.

With `Cc1c(C(=O)C(N)=O)c2c(OCC(=O)O)cccc2n1Cc1ccccc1` [Example 1, [[3-(2-Amino-1,2-dioxoethyl)-2-methyl-1-(phenylmethyl)-1H-indol-4-yl]oxy]acetic Acid] the IC50 [1] was 10.7 ± 5.51 nM and the Kb [2] was 143 ± 67 nM.

`Cc1c(C(=O)C(N)=O)c2c(OCC(=O)O)cccc2n1Cc1ccccc1-c1ccccc1` [Example 3, [[3-(2-Amino-1,2-dioxoethyl)-1-([1,1′-biphenyl]-2-ylmethyl)-2-methyl-1H-indol-4-yl]oxy]acetic Acid] was tested, and the IC50 [1] was 5.33 ± 1.15 nM.

`Cc1c(C(=O)C(N)=O)c2c(OCC(=O)O)cccc2n1Cc1cccc(-c2ccccc2)c1` [Example 4, [[3-(2-Amino-1,2-dioxoethyl)-1-([1,1′-biphenyl]-3-ylmethyl)-2-methyl-1H-indol-4-yl]oxy]acetic Acid] was tested, and the IC50 [1] was 9.69 ± 1.14 nM.

`Cc1c(C(=O)C(N)=O)c2c(OCC(=O)O)cccc2n1Cc1ccc(-c2ccccc2)cc1` [Example 5, [[3-(2-Amino-1,2-dioxoethyl)-1-([1,1′-biphenyl]-4-ylmethyl)-2-methyl-1H-indol-4-yl]oxy]acetic Acid] showed an IC50 [1] of 49 ± 11.5 nM.

In the case of `Cc1c(C(=O)C(N)=O)c2c(OCC(=O)O)cccc2n1Cc1c(Cl)cccc1Cl` [Example 6, [[3-(2-Amino-1,2-dioxoethyl)-1-[(2,6-dichlorophenyl)methyl]-2-methyl-1H-indol-4-yl]oxy]acetic Acid], the IC50 [1, 3] is reported as 6 ± 1 nM.

In the case of `Cc1c(C(=O)C(N)=O)c2c(OCC(=O)O)cccc2n1Cc1ccc(F)cc1` [Example 7, [[3-(2-Amino-1,2-dioxoethyl)-1-[4(-fluorophenyl)methyl]-2-methyl-1H-indol-4-yl]oxy]acetic Acid], the IC50 [1] is reported as 6 ± 1 nM.

Work on `Cc1c(C(=O)C(N)=O)c2c(OCC(=O)O)cccc2n1Cc1cccc2ccccc12` [Example 8, [[3-(2-Amino-1,2-dioxoethyl)-2-methyl-1-[(1-naphthalenyl)methyl]-1H-indol-4-yl]oxy]acetic Acid] yielded an IC50 [1] of 32.8 ± 7.04 nM.

`CCc1c(C(=O)C(N)=O)c2c(OCC(=O)O)cccc2n1Cc1cccc(Cl)c1` [Example 10, [[3-(2-Amino-1,2-dioxoethyl)-1-[(3-chlorophenyl)methyl]-2-ethyl-1H-indol-4-yl]oxy]acetic Acid] was tested, and the IC50 [1] was 6.67 ± 2.89 nM.

`CCc1c(C(=O)C(N)=O)c2c(OCC(=O)O)cccc2n1Cc1ccccc1-c1ccccc1` [Example 11, [[3-(2-Amino-1,2-dioxoethyl)-1-([1,1′-biphenyl]-2-ylmethyl)-2-ethyl-1H-indol-4-yl]oxy]acetic Acid] was tested, and the IC50 [1] was 4.33 ± 2.31 nM and the Kb [2] was 57 ± 11 nM.

For `CCCc1c(C(=O)C(N)=O)c2c(OCC(=O)O)cccc2n1Cc1ccccc1-c1ccccc1` [Example 12, [[3-(2-amino-1,2-dioxoethyl)-1-([1,1′-biphenyl]-2-ylmethyl)-2-propyl-1H-indol-4-yl]oxy]acetic Acid], the IC50 [1, 3] was 82.2 ± 18 nM.

`NC(=O)C(=O)c1c(C2CC2)n(Cc2ccccc2)c2cccc(OCC(=O)O)c12` [Example 13, [[3-(2-Amino-1,2-dioxoethyl)-2-cyclopropyl-1-(phenylmethyl)-1H-indol-4-yl]oxy]acetic Acid] was tested, and the IC50 [1] was 27.6 ± 13.1 nM.

`NC(=O)C(=O)c1c(C2CC2)n(Cc2ccccc2-c2ccccc2)c2cccc(OCC(=O)O)c12` [Example 14, [[3-(2-Amino-1,2-dioxoethyl)-1-([1,1′-biphenyl]-2-ylmethyl)-2-cyclopropyl-1H-indol-4-yl]oxy]acetic Acid] gave an IC50 [1] of 5.57 ± 2.89 nM and a Kb [2] of 75 ± 9 nM.

Compound `CCc1c(C(=O)C(N)=O)c2cc(OCCCC(=O)O)ccc2n1Cc1ccccc1` [Example 15] has an IC50 [1, 3] of 210 ± 60 nM.

`NC(=O)C(=O)c1cn(Cc2ccccc2)c2ccc(OCCCC(=O)O)cc12` [Example 16, 4-[[3-(2-Amino-1,2-dioxoethyl)-1-(phenylmethyl)-H-indol-5-yl]oxy]butanoic Acid] was tested, and the “activity in inhibiting sPLA2 (in words)” value ([1]; comment on Table I) was “much less active” and the IC50 [1, 3] was 62000 nM.

`CCc1c(C(=O)C(N)=O)c2c(NCC(=O)O)cccc2n1Cc1ccccc1` [Example 17, [[3-(Aminooxoacetyl)-2-ethyl-1-(phenylmethyl)-1H-indol-4-yl]amino]acetic Acid] gave an IC50 [1, 3] of 1150 ± 120 nM.
